The values that follow are results of earlier work, collected in patent publication US11160745B2, “Methods and compositions for topical delivery for skin care” (priority 2014, dated 2021).

Series [1] has as its system wrinkles around the eyes. The note with it: for Reduction of the depth of wrinkles: independent study; for Decrease in severity of wrinkles around the eyes: ONV emulsion containing 10% Argireline solution, twice a day.
In series [2] the target is T1, ternary SNARE complex (Homo sapiens, UniProt Q16623).
T1 construct: Chromaffin cells were prepared and further separated from erythrocytes and other impurities by centrifugation gradient; endogenous in cells; complex immunoprecipitated
Conditions: immunoblot with anti-syntaxin mAb. A general note: A western blot detects proteins with antibodies after separation by electrophoresis.

Series [3] relates to chromaffin cells. The note with it: tritiated noradrenaline/adrenaline, liquid scintillation counting.

Where two headings read alike, the source gives them in different places.

T1 sequence (Q16623 whole entry, one chain of several): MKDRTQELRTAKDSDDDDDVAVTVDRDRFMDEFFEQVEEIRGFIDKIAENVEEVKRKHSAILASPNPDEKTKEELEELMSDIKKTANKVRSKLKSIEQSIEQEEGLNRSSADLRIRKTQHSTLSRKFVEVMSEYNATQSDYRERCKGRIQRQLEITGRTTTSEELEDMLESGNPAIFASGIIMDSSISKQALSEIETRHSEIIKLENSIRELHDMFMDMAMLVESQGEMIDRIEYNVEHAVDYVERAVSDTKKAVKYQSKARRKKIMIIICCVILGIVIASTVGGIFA

With “Ac-EEMQRR-NH2 [Argireline, (6S,9S,12S,15S,18S,21 S)-21-Acetamido-1-amino-12-(3-amino-3-oxopropyl)-6-carbamoyl-18-(2-carboxyethyl)-9-(3-guanidinopropyl)-1-imino-15-(2-(methylthio)ethyl)-8,11,14,17,20-pentaoxo-2,7,10,13,16,19-hexaazatetracosan-24-oic acid]”, the “Reduction of the depth of wrinkles” value in series [1] (after 15 days of treatment) was “up to 17%”; in series [1] (following 30 days of treatment) it was “up to 27%”. The “Decrease in severity of wrinkles around the eyes” value in series [1] (after 15 days) is reported as “up to 17%”; in series [1] (after 30 days) it was “up to 27%”. The SNARE complex formation entry in series [2] is “modulates SNARE complex formation at concentrations in the mM range”. The “Release of catecholamines (adrenaline and noradrenaline)” value in series [3] is “significant modulation of both neurotransmitters at nM concentrations”.
